In this experiment the target is HCMV protease (Human cytomegalovirus). Put plainly: Micro molar potency to inhibit human cytomegalovirus (HCMV) protease.

For six compounds, IC50 results are on record in BindingDB's records for doi:10.1021/jm970104t (Boehringer Ingelheim, 1998).

Where a SMILES comes first, the peptide text is derived from it. [ ]: non-standard residue; d: D form. The star is where a group is joined. ξ: configuration not given here. Tle = CC(C)(C)[C@H](N)C(=O)O; ξNva = CCCC(N)C(=O)O; ξA = CC(N)C(=O)O; CF3 = FC(F)(F)*

`CC(NC(=O)[C@H](CC(=O)N(C)C)NC(=O)[C@@H](N)C(C)(C)C)C(=O)C(F)(F)F` (stereo partly drawn) [(S)-2-((S)-2-Amino-3,3-dimethyl-butyrylamino)-N*4*,N*4*-dimethyl-N*1*-(3,3,3-trifluoro-1-methyl-2-oxo-propyl)-succinamide] (H-[Tle]-Asp(NMe2)-[ξA]-CF3) registered an IC50 of 12 µM.

As for `CC(NC(=O)[C@H](CC(=O)N(C)C)NC(=O)[C@@H](O)C(C)(C)C)C(=O)C(F)(F)F` (stereo partly drawn) [(S)-2-((S)-2-Hydroxy-3,3-dimethyl-butyrylamino)-N*4*,N*4*-dimethyl-N*1*-(3,3,3-trifluoro-1-methyl-2-oxo-propyl)-succinamide], half-maximal inhibition (IC50) required 20 µM. Regarding `CC(NC(=O)[C@H](CC(=O)N(C)C)NC(=O)[C@@H](NC(=O)CC(C)(C)C)C(C)(C)C)C(=O)C(=O)N(C)C` (stereo partly drawn) [(S)-2-[(S)-2-(3,3-Dimethyl-butyrylamino)-3,3-dimethyl-butyrylamino]-N*1*-(2-dimethylcarbamoyl-1-methyl-2-oxo-ethyl)-N*4*,N*4*-dimethyl-succinamide], the IC50 is > 300 µM. The compound `Cc1ccc2nc(C(=O)C(C)NC(=O)[C@H](CC(=O)N(C)C)NC(=O)[C@@H](NC(=O)CC(C)(C)C)C(C)(C)C)oc2c1` (stereo partly drawn) [(S)-2-[(S)-2-(3,3-Dimethyl-butyrylamino)-3,3-dimethyl-butyrylamino]-N*4*,N*4*-dimethyl-N*1*-[1-methyl-2-(6-methyl-benzooxazol-2-yl)-2-oxo-ethyl]-succinamide] displayed an IC50 of 0.6 µM. As for `CCCC(NC(=O)[C@H](CC(N)=O)NC(=O)[C@@H](NC(=O)[C@@H](NC(C)=O)C(C)C)C(C)C)C(=O)C(F)(F)F` (stereo partly drawn) [(S)-2-[(S)-2-((S)-2-Acetylamino-3-methyl-butyrylamino)-3-methyl-butyrylamino]-N*1*-[1-(2,2,2-trifluoro-acetyl)-butyl]-succinamide] (Ac-VVN[ξNva]-CF3), the IC50 is > 300 µM.

Take `CN(C)C(=O)C[C@H](NC(=O)[C@@H](NC(=O)CC(C)(C)C)C(C)(C)C)C(=O)N[C@H]1CN(OCc2ccccc2)C1=O` [(S)-N*1*-((S)-1-Benzyloxy-2-oxo-azetidin-3-yl)-2-[(S)-2-(3,3-dimethyl-butyrylamino)-3,3-dimethyl-butyrylamino]-N*4*,N*4*-dimethyl-succinamide]: the half-inhibitory concentration (IC50) turned out to be 33 µM.
